Laboratory results as given in US11242344B2, “(4-hydroxypyrrolidin-2-yl)-heterocyclic compounds and methods of use thereof” (Genentech, Inc., priority 2017, dated 2022).

Tests used:
VHL Elongin B/C complex = VHL Elongin B/C complex (Homo sapiens (Human), UniProt P40337); assay: Fluorescence Polarization (FP) VHL Binding Assay; details: VHL binding, FP assay; geometric mean where more than one measurement
Summary of the method: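 Readout is polarization of a TAMRA-coupled VHL ligand (1.67 nM final) displaced from the VHL(E55-D213)/Elongin B/C complex (2.64 nM final) after 1 h incubation at room temperature in pH 8.0 Tris buffer with 1% DMSO. Data normalized to no-VHL and compound-free controls, with compound fluorescence subtracted, and fitted by four-parameter curve for IC50.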

MYC expression = assay: Inhibition of MYC expression in MV-4-11 cells; assay type: cell-based; details: for IC50: QuantiGene 2.0, geometric mean; for Maximum Inhibition (%): maximum inhibition of MYC expression
Protocol: Pharmacologic inhibition of MYC is achievable through targeting BET bromodomains through small molecule binder or degrader mechanisms. Such inhibitors may have clinical utility given the widespread pathogenetic role of MYC in cancer. See, e.g., Mertz J, et al., “Targeting MYC dependence in cancer by inhibiting BET bromodomains,” (2011) Proc. Natl. Acad. Sci. USA, Vol. 108 (40), pp. 16669-16674.
To determine the inhibition of MYC expression, MV-4-11 cells (ATCC) were plated at 10,000 cells per well in 96-well plates in RPMI1640 media supplemented with 10% fetal bovine serum and 2 mM L-glutamine. Test compounds diluted in DMSO were transferred to the cell plates, keeping final DMSO concentration consistent at 0.1%, and incubated for 4 h at 37° C. Lysis and analysis for MYC expression were carried out using QuantiGene 2.0 reagents (Affymetrix/eBioscience, probe set cat #SA-50182) and following the vendor's instructions. Luminescence was read using an EnVision plate reader (PerkinElmer) and IC50s generated in Genedata Screener using a 4-parameter non-linear regression fit.
Effective degraders will surpass this and inhibit >95% of MYC, thus following the maximum inhibition within this assay provides valuable SAR. Where more than one measurement was performed for the same assay, the value reported is the geometric mean of all values.

[1] = target: VHL co-expressed with Elongins B and C (Homo sapiens (Human), UniProt P40337); assay: Surface Plasmon Resonance Assay; assay type: binding; details: SPR measured VHL affinity; geometric mean where more than one measurement
Sequence of VHL co-expressed with Elongins B and C (P40337 whole entry, looked up): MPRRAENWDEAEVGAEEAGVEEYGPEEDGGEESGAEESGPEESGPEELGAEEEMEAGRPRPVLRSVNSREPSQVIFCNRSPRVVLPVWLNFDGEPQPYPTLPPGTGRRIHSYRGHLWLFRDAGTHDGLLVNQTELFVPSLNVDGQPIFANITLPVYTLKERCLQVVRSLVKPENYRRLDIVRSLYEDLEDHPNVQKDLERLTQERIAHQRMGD
Sequence of VHL co-expressed with Elongins B and C (Q15370 whole entry partner, looked up): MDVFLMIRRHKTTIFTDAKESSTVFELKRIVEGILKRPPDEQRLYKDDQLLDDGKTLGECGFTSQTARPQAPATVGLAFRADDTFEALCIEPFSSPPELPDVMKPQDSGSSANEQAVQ
Sequence of VHL co-expressed with Elongins B and C (Q15369 whole entry partner, looked up): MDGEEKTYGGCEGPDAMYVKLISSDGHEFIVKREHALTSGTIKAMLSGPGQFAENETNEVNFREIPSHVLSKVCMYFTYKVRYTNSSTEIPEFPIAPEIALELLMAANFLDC
Summary of the method: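 Binding kinetics by SPR at 20 °C: compound concentration series run from low to high at 80 μL/min over VHL–Elongin B/C complex, immobilized via avidin tag on SA chip. Buffer was HEPES pH 7.2 with 150 mM NaCl, TCEP, Tween 20, PEG3350 and 2% DMSO; association/dissociation times adjusted per compound.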

[2] = target: NanoLuc VHL fusion protein (Homo sapiens (Human), UniProt P40337); assay: VHL HEK-293 BRET Assay (NanoBRET Target Engagement); assay type: cell-based; details: geometric mean where more than one measurement
Sequence of NanoLuc VHL fusion protein (P40337 whole entry, looked up, the tested form may be a part): as the sequence (P40337 whole entry, looked up) above
Sequence of NanoLuc VHL fusion protein (Q15370 whole entry partner, looked up, the tested form may be a part): as the sequence (Q15370 whole entry partner, looked up) above
Sequence of NanoLuc VHL fusion protein (Q15369 whole entry partner, looked up, the tested form may be a part): as the sequence (Q15369 whole entry partner, looked up) above
Summary of the method: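 HEK293 cells stably expressing NanoLuc-VHL, 2 h with compound titration and 1 uM final tracer, then Nano-Glo substrate plus extracellular NanoLuc inhibitor. BRET ratio 610/460 nm, background-corrected with no-tracer wells, normalised to DMSO and 10 uM unlabeled VHL antagonist controls; IC50 by four-parameter fit.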

Sequence of VHL Elongin B/C complex (P40337 whole entry, looked up): as the sequence (P40337 whole entry, looked up) above
Sequence of VHL Elongin B/C complex (Q15370 whole entry partner, looked up): as the sequence (Q15370 whole entry partner, looked up) above
Sequence of VHL Elongin B/C complex (Q15369 whole entry partner, looked up): as the sequence (Q15369 whole entry partner, looked up) above

SMILES	IC50 (VHL Elongin B/C complex)	IC50 (MYC expression; 4 h)	IC50 (MYC expression; Homo sapiens, MV4-11, 4 h)	Kd [1]	IC50 [2]	Maximum Inhibition (%) (MYC expression; 4 h)
Cc1ncsc1-c1ccc([C@]2(C)NC(C3C[C@@H](O)CN3C(=O)C(c3cc(OCCCCCNC(=O)c4cc5c(cc4CS(C)(=O)=O)-c4cn(C)c(=O)c6[nH]cc(c46)CN5c4ncc(F)cc4F)no3)C(C)C)=NC2=O)cc1 (single isomer, unassigned) [Example 1001.4]	> 100 µM	0.0261 µM				75.7%
Cc1ncsc1-c1ccc(C2(C)NC(C3C[C@@H](O)CN3C(=O)C(c3cc(OCCN4CC[C@H](NC(=O)c5cc6c(cc5CS(C)(=O)=O)-c5cn(C)c(=O)c7[nH]cc(c57)CN6c5ncc(F)cc5F)C4)no3)C(C)C)=NC2=O)cc1 (single isomer, unassigned) [Example 1002.3]			0.123 µM			69.8%
CC(=O)N1CCCCC1C(=O)N1C[C@H](O)CC1C1=NC(=O)[C@](C)(c2ccc(-c3scnc3C)cc2)N1 (single isomer, unassigned) [Example 124.4]	≥ 400 µM			≥ 150 µM	100 µM	
Cc1ncsc1-c1ccc([C@]2(C)NC(C3C[C@@H](O)CN3C(=O)C3N(S(C)(=O)=O)CCC3(C)C)=NC2=O)cc1 (single isomer, unassigned) [Example 125.3]	≥ 400 µM			≥ 150 µM	100 µM	
Cc1noc(C(C(=O)N2C[C@H](O)CC2C2=NC(=O)[C@](C)(c3ccc(-c4scnc4C)cc3)N2)C(C)C)n1 (single isomer, unassigned) [Example 117.4]	≥ 400 µM			150 µM	100 µM	
CC(=O)N1CCCCC1C(=O)N1C[C@H](O)CC1C1=NC(=O)[C@](C)(c2ccc(-c3scnc3C)cc2)N1 (single isomer, unassigned) [Example 124.1]	≥ 400 µM			≥ 150 µM	100 µM	
CC/C(=C(\c1ccc(O)cc1)c1ccc(OCCN(C)C(=O)CCCOCCOc2cc(C(C(=O)N3C[C@H](O)CC3C3=NC(=O)[C@](C)(c4ccc(-c5scnc5C)cc4)N3)C(C)C)on2)cc1)c1ccccc1 (single isomer, unassigned) [Example 1003.2]	≥ 400 µM			67.1 µM	≥ 100 µM	
Cc1cc([C@H](C(=O)N2C[C@H](O)C[C@H]2C2=NO[C@](C)(c3ccc(Br)cc3)N2)C(C)C)on1 (mixture of isomers) [Example 113.4, (2S)-1-((2S,4R)-2-(5-(4-Bromophenyl)-5-methyl-4,5-dihydro-1,2,4-oxadiazol-3-yl)-4-hydroxypyrrolidin-1-yl)-3-methyl-2-(3-methylisoxazol-5-yl)butan-1-one and (2R)-1-((2S,4R)-2-(5-(4-Bromophenyl)-5-methyl-4,5-dihydro-1,2,4-oxadiazol-3-yl)-4-hydroxypyrrolidin-1-yl)-3-methyl-2-(3-methylisoxazol-5-yl)butan-1-one]	2.28 µM			3.17 µM	2.92 µM	
Cc1ncsc1-c1ccc(C2(C)NC(C3C[C@@H](O)CN3C(=O)C(c3cc(OCCN4CC[C@H](NC(=O)c5cc6c(cc5CS(C)(=O)=O)-c5cn(C)c(=O)c7[nH]cc(c57)CN6c5ncc(F)cc5F)C4)no3)C(C)C)=NC2=O)cc1 (single isomer, unassigned) [Example 1002.4]		0.0804 µM				69.9%
Cc1cc([C@H](C(=O)N2C[C@H](O)C[C@H]2C2=NO[C@@](C)(c3ccc(Br)cc3)N2)C(C)C)on1 (mixture of isomers) [Example 113.2, (2S)-1-((2S,4R)-2-(5-(4-Bromophenyl)-5-methyl-4,5-dihydro-1,2,4-oxadiazol-3-yl)-4-hydroxypyrrolidin-1-yl)-3-methyl-2-(3-methylisoxazol-5-yl)butan-1-one and (2R)-1-((2S,4R)-2-(5-(4-Bromophenyl)-5-methyl-4,5-dihydro-1,2,4-oxadiazol-3-yl)-4-hydroxypyrrolidin-1-yl)-3-methyl-2-(3-methylisoxazol-5-yl)butan-1-one]	6.3 µM			2.49 µM	2.94 µM	
Cc1ncsc1-c1ccc([C@]2(C)NC(C3C[C@@H](O)CN3C(=O)C(c3cn(C)nn3)C(C)C)=NC2=O)cc1 (single isomer, unassigned) [Example 118.1]	157 µM			61.5 µM	100 µM	
Cc1cc([C@H](C(=O)N2C[C@H](O)C[C@H]2C2=NO[C@](c3ccccc3)(C(F)(F)F)N2)C(C)C)on1 (mixture of isomers) [Example 114.4, (2S)-1-((2S,4R)-4-Hydroxy-2-(5-phenyl-5-(trifluoromethyl)-4,5-dihydro-1,2,4-oxadiazol-3-yl)pyrrolidin-1-yl)-3-methyl-2-(3-methylisoxazol-5-yl)butan-1-one and (2R)-1-((2S,4R)-4-Hydroxy-2-(5-phenyl-5-(trifluoromethyl)-4,5-dihydro-1,2,4-oxadiazol-3-yl)pyrrolidin-1-yl)-3-methyl-2-(3-methylisoxazol-5-yl)butan-1-one]	58.3 µM			5.86 µM	59.9 µM	
Cc1ncsc1-c1ccc([C@]2(C)NC(C3C[C@@H](O)CN3C(=O)[C@H](C(C)C)N3Cc4ccccc4C3=O)=NC2=O)cc1 (single isomer, unassigned) [Example 123.1]	≥ 400 µM			55.6 µM	100 µM	

The next lines start with results.

IC50 (VHL Elongin B/C complex)	IC50 (MYC expression; 4 h)	IC50 (MYC expression; Homo sapiens, MV4-11, 4 h)	Kd [1]	IC50 [2]	SMILES	Maximum Inhibition (%) (MYC expression; 4 h)
40.7 µM			4.03 µM	25.7 µM	CCN1N=C([C@@H]2C[C@@H](O)CN2C(=O)C(c2cc(C)no2)C(C)C)NC1(C)C (single isomer, unassigned) [Example 115.2]	
111 µM			31.8 µM	≥ 100 µM	Cc1ncsc1-c1ccc([C@]2(C)NC(C3C[C@@H](O)CN3C(=O)[C@@H](NC(=O)C3(C#N)CC3)C(C)(C)C)=NC2=O)cc1 (single isomer, unassigned) [Example 111.1]	
93.6 µM			≥ 150 µM	77.1 µM	Cc1cc(C(C(=O)N2C[C@H](O)CC2C2=NC(C)(C)C(C)(C)N2)C(C)C)on1 (stereo partly drawn) [Example 136.1, 1-((4R)-4-Hydroxy-2-(4,4,5,5-tetramethyl-4,5-dihydro-1H-imidazol-2-yl)pyrrolidin-1-yl)-3-methyl-2-(3-methylisoxazol-5-yl) butan-1-one]	
33.6 µM			5.7 µM	10.7 µM	Cc1cc([C@H](C(=O)N2C[C@H](O)C[C@H]2C2=NOC(C)(c3ccccc3)N2)C(C)C)on1 (single isomer, unassigned) [Example 128.3]	
0.418 µM			0.0293 µM	0.304 µM	Cc1cc([C@H](C(=O)N2C[C@H](O)C[C@H]2C2=NOC(C)(c3ccc(-c4scnc4C)cc3)N2)C(C)C)on1 (single isomer, unassigned) [Example 129.3]	
58.4 µM			57 µM	77.9 µM	Cc1cc([C@@H](C(=O)N2C[C@H](O)C[C@H]2C2=NOC(C)(c3ccc(-c4scnc4C)cc3)N2)C(C)C)on1 (single isomer, unassigned) [Example 129.2]	
150 µM			21.2 µM	100 µM	Cc1ncsc1-c1ccc([C@]2(C)NC(C3C[C@@H](O)CN3C(=O)C(c3cn(C)nn3)C(C)C)=NC2=O)cc1 (single isomer, unassigned) [Example 118.3]	
